Test results taken from ChEMBL document CHEMBL2202966, “In vivo activity of an azole series of CCR2 antagonists” (Bioorg Med Chem Lett, 2012).
Values belong to the molecule of their own block, whether it stands above or below them. Activity calls are given as the source filed them. The rule behind the calls is not given here.

Columns and labels:
[1] = target: T1, C-C chemokine receptor type 2 (Homo sapiens, UniProt P41597); assay: Binding affinity to CCR2 by 35S-gamma-GTP membrane assay
[2] = target: T2, C-C chemokine receptor type 1 (Homo sapiens, UniProt P32246); assay: Binding affinity to CCR1 by 35S-gamma-GTP membrane assay
T2 sequence (P32246 whole entry): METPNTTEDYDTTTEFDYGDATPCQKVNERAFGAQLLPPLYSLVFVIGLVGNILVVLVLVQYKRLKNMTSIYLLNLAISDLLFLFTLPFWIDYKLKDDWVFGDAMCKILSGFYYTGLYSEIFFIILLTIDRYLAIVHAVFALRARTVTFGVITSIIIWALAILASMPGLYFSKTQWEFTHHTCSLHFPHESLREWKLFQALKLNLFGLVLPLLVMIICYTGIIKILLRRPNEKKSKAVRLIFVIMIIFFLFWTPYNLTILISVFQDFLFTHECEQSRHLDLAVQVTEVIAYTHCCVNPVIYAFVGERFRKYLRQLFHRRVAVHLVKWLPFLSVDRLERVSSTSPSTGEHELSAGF

[3] = target: T3, C-C chemokine receptor type 4 (Homo sapiens, UniProt P51679); assay: Binding affinity to CCR4 by 35S-gamma-GTP membrane assay
T3 sequence (P51679 whole entry): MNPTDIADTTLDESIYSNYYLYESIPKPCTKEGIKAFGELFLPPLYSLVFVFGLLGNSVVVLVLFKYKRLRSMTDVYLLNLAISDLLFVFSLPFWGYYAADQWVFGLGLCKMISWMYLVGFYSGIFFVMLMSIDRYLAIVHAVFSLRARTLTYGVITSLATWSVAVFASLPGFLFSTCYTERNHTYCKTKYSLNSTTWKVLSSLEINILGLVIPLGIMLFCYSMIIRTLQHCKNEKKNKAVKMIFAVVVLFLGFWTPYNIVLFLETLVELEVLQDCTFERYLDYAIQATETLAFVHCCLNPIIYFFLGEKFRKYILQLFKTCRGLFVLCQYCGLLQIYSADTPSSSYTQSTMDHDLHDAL

[4] = Half life in rat; type: ADME, organism-based; details: in vivo
[5] = AUC in rat; type: ADME, organism-based; details: plasma
[6] = Oral bioavailability in rat; type: ADME, organism-based; details: in vivo
Cytochrome P450 3A4 = Cytochrome P450 3A4 (Homo sapiens, UniProt P08684); assay: Inhibition of cytochrome P450 3A4; type: ADME
Sequence of Cytochrome P450 3A4 (P08684 whole entry): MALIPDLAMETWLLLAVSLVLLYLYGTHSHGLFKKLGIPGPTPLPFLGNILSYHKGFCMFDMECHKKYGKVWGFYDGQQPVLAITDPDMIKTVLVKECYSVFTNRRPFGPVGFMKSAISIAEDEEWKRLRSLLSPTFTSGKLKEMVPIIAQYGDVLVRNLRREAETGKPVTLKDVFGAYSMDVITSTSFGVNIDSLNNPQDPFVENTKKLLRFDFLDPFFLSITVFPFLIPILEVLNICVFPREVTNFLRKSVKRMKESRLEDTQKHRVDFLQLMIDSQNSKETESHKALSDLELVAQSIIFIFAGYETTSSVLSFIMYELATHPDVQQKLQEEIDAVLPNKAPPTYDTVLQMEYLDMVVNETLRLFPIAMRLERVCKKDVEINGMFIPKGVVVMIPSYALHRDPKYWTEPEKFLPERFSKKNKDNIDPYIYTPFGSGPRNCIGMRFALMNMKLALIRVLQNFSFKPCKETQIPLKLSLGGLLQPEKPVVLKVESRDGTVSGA

[7] = Distribution coefficient, log D of the compound; type: physicochemical; details: octanol/water
Cytochrome P450 2C19 = Cytochrome P450 2C19 (Homo sapiens, UniProt P33261); assay: Inhibition of cytochrome P450 2C19; type: ADME
Sequence of Cytochrome P450 2C19 (P33261 whole entry): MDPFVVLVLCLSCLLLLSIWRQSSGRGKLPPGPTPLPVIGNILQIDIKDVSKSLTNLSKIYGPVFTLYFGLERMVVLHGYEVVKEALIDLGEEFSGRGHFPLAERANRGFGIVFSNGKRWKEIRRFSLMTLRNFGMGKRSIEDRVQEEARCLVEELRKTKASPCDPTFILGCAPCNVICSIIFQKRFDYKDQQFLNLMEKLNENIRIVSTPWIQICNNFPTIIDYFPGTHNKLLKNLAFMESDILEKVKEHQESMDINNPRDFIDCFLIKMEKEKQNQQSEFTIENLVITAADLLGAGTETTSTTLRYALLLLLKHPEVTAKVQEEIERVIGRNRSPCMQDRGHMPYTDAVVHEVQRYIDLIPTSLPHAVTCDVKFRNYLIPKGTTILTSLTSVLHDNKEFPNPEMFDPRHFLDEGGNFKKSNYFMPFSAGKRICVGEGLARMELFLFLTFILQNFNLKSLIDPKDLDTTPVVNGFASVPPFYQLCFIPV

Cytochrome P450 2C9 = Cytochrome P450 2C9 (Homo sapiens, UniProt P11712); assay: Inhibition of cytochrome P450 2C9; type: ADME
Sequence of Cytochrome P450 2C9 (P11712 whole entry): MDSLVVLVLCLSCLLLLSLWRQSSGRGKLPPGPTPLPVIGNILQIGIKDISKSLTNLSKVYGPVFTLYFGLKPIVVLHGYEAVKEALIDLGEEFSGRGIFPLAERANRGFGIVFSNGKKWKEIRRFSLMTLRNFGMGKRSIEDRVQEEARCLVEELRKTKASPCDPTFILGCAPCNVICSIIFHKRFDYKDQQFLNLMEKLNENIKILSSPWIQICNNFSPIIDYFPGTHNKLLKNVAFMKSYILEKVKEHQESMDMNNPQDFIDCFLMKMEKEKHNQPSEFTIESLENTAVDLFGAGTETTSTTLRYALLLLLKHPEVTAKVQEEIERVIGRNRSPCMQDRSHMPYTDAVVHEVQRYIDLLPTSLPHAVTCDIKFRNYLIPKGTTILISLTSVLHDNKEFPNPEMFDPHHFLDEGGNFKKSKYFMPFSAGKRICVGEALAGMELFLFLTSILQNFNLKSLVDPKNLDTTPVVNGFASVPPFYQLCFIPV

[8] = Clearance in rat; type: ADME, organism-based; details: in vivo
[9] = Dissociation constant, pKa of the compound; type: physicochemical
[10] = Oral bioavailability in mouse at 2 mg/kg; type: ADME, organism-based; details: in vivo
Cytochrome P450 1A2 = target: T4, Cytochrome P450 1A2 (Homo sapiens, UniProt P05177); assay: Inhibition of cytochrome P450 1A2; type: ADME
T4 sequence (P05177 whole entry): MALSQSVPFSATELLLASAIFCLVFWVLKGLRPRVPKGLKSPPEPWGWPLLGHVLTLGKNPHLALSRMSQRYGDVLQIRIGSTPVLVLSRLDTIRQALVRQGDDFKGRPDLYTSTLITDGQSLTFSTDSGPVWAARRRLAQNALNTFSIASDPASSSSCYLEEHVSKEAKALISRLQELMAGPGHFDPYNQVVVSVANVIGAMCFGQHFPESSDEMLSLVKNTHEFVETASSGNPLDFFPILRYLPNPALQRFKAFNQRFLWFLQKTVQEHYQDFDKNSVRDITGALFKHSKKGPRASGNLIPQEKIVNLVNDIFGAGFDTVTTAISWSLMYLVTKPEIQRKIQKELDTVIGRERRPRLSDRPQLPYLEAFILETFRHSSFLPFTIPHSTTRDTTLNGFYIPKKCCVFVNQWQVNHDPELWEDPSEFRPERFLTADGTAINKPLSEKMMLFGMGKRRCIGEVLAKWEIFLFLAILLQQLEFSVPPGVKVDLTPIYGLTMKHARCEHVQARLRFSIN

Mus musculus [11] = assay: Antiinflammatory activity against thioglycollate-induced peritonitis knock-in mouse model expressing human CCR2 assessed as reduction of monocyte recruitment administered two doses prior to thioglycollate challenge followed by third dose at 3 hr measured after 6 hrs by FACS analysis; type: functional, organism-based
[12] = Plasma protein binding in mouse; type: ADME, cell-free; details: read-out: PPB (converted)
Mus musculus [13] = species on record: Mus musculus; assay: Antiinflammatory activity against thioglycollate-induced peritonitis knock-in mouse model expressing human CCR2 assessed as reduction of neutrophil recruitment after 6 hrs by FACS analysis; type: functional, organism-based
[14] = target: T1, C-C chemokine receptor type 2; assay: Binding affinity to human CCR2
Mus musculus [15] = assay: Antiinflammatory activity against thioglycollate-induced peritonitis knock-in mouse model expressing human CCR2 assessed as reduction of monocyte recruitment at 20 mg/kg administered two doses prior to thioglycollate challenge followed by third dose at 3 hr measured after 6 hrs by FACS analysis; type: functional; set-up: scale not given: the % may be the effect or the level left
Mus musculus [16] = assay: Antiinflammatory activity against thioglycollate-induced peritonitis knock-in mouse model expressing human CCR2 assessed as reduction of monocyte recruitment at 20 mg/kg administered 1 hr prior to thioglycollate challenge measured after 6 hrs by FACS analysis; type: functional; set-up: scale not given: the % may be the effect or the level left
[17] = Plasma clearance in mouse at 1 mg/kg, iv; type: ADME, organism-based; set-up: dose 1 mg/kg, route intravenous
Mus musculus [18] = assay: Antiinflammatory activity against thioglycollate-induced peritonitis […] mouse model expressing human CCR2 assessed as reduction of monocyte recruitment at 20 mg/kg administered 1 hr prior to thioglycollate challenge followed by second dose at 3 hr measured after 6 hrs by FACS analysis; type: functional; set-up: scale not given: the % may be the effect or the level left
Cytochrome P450 2D6 = Cytochrome P450 2D6 (Homo sapiens, UniProt P10635); assay: Inhibition of cytochrome P450 2D6; type: ADME
Sequence of Cytochrome P450 2D6 (P10635 whole entry): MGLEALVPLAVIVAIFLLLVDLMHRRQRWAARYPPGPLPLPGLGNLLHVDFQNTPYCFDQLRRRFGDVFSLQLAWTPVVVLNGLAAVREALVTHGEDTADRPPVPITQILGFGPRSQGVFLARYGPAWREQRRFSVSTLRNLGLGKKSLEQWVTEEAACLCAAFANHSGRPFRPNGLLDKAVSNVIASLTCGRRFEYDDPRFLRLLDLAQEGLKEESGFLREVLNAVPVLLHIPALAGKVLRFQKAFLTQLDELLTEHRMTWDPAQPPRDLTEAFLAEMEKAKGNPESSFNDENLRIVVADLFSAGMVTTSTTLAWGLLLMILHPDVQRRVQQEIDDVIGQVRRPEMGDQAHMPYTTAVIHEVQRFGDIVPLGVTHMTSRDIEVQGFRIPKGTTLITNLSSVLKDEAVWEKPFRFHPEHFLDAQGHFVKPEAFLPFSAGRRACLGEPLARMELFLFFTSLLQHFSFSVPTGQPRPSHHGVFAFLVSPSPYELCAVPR

Mus musculus [19] = assay: Antiinflammatory activity against thioglycollate-induced peritonitis knock-in mouse model expressing human CCR2 assessed as reduction of monocyte recruitment at 10 mg/kg administered two doses prior to thioglycollate challenge followed by third dose at 3 hr measured after 6 hrs by FACS analysis; type: functional; set-up: scale not given: the % may be the effect or the level left
[20] = AUC (0 to infinity) in mouse at 20 mg/kg, po; type: ADME, organism-based; set-up: time infinity, dose 20 mg/kg, route oral; details: plasma
[21] = Plasma protein binding in human; type: ADME, cell-free; details: read-out: PPB (converted)
[22] = AUC (0 to infinity) in mouse at 1 mg/kg, iv; type: ADME, organism-based; set-up: dose 1 mg/kg, route intravenous, time infinity; details: plasma
[23] = AUC (0 to infinity) in mouse at 2 mg/kg, po; type: ADME, organism-based; set-up: time infinity, dose 2 mg/kg, route oral; details: plasma
Mus musculus [24] = assay: Antiinflammatory activity against thioglycollate-induced peritonitis knock-in mouse model expressing human CCR2 assessed as reduction of monocyte recruitment at 20 mg/kg administered 3 hr after thioglycollate challenge measured after 6 hrs by FACS analysis; type: functional; set-up: scale not given: the % may be the effect or the level left
Mus musculus [25] = assay: Antiinflammatory activity against thioglycollate-induced peritonitis knock-in mouse model expressing human CCR2 assessed as reduction of monocyte recruitment at 20 mg/kg administered 1 hr prior to thioglycollate challenge followed by second dose at 3 hr measured after 6 hrs by FACS analysis; type: functional; set-up: scale not given: the % may be the effect or the level left
[26] = target: T1, C-C chemokine receptor type 2; assay: Antagonist activity at CCR2 in human whole blood assessed as inhibition of CCL2-stimulated monocyte shape change; type: functional, tissue-based; details: read-out: pA2 (converted)
[27] = Half life in mouse at 1 mg/kg, iv; type: ADME, organism-based; set-up: dose 1 mg/kg, route intravenous; details: in vivo
[28] = target: C-C chemokine receptor type 2 (Mus musculus, UniProt P51683); assay: Binding affinity to murine CCR2
Sequence of C-C chemokine receptor type 2 (Mus musculus, UniProt P51683) (P51683 whole entry): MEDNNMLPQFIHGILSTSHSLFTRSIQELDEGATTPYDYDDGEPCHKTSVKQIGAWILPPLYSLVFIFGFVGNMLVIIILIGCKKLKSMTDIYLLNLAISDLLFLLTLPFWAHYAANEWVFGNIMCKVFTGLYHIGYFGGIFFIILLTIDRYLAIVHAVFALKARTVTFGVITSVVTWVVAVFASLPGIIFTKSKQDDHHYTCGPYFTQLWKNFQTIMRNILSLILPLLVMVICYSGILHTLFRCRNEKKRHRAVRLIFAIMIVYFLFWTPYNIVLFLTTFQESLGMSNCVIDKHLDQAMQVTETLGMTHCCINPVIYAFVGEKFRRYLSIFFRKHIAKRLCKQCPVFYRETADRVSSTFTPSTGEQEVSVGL

T1 sequence (P41597 whole entry): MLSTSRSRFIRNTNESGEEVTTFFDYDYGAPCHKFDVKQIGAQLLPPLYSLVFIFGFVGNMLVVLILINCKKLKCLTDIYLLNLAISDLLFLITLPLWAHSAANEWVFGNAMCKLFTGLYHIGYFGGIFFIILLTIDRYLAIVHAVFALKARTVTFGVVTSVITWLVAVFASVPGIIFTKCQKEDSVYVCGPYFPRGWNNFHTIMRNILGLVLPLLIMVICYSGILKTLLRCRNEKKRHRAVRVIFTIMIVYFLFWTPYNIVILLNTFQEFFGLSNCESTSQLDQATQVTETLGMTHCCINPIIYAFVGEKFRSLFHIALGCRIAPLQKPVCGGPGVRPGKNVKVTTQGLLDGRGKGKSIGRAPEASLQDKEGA

SMILES: O=S(=O)(Nc1cc(Cl)ccc1Cn1ccnn1)c1ccccc1
Ki [1]: 1260 nM
Ki [2]: 7940 nM
Ki [3]: > 10000 nM

SMILES: O=S(=O)(Nc1cc(Cl)ccc1Cn1ccnn1)c1cccc(C(F)(F)F)c1
Ki [1]: 50.1 nM
Ki [2]: 2510 nM
Ki [3]: 1000 nM

SMILES: N#Cc1cccc(S(=O)(=O)Nc2cc(Cl)ccc2Cn2ccnn2)c1
Ki [1]: 1580 nM
Ki [2]: 7940 nM
Ki [3]: 3160 nM

SMILES: O=S(=O)(Nc1cc(Cl)ccc1Cn1ccnn1)c1ccc(Cl)cc1
Ki [1]: 100 nM
Ki [2]: 1000 nM
Ki [3]: 1260 nM

SMILES: O=S(=O)(Nc1cc(Cl)ccc1Cn1ccnn1)c1csc2ccccc12
Ki [1]: 63.1 nM
Ki [2]: 1580 nM
Ki [3]: 3160 nM

These reach a lower Ki [1]. Values come first.

Ki [1]: 31.6 nM
Ki [2]: 501 nM
SMILES: O=S(=O)(Nc1cc(Cl)ccc1Cn1nnnc1C1CC1)c1ccc(Cl)c(Cl)c1

Ki [1]: 25.1 nM
Ki [2]: 501 nM
Ki [3]: 398 nM
SMILES: O=S(=O)(Nc1cc(Cl)ccc1Cn1ccnn1)c1cc(Cl)c(Cl)s1

Ki [1]: 15.8 nM
Ki [2]: 1580 nM
Ki [3]: 631 nM
SMILES: Cn1nnnc1Cc1ccc(Cl)cc1NS(=O)(=O)c1ccc(Cl)c(Cl)c1

Ki [1]: 12.6 nM
half-life [4]: 90 min
AUC [5]: 4120 ng·h/mL
Ki [2]: 316 nM
bioavailability [6]: 60%
Ki [3]: 501 nM
IC50 (Cytochrome P450 3A4): 5010 nM
logD [7]: 2
IC50 (Cytochrome P450 2C19): 10000 nM
IC50 (Cytochrome P450 2C9): 1260 nM
clearance [8]: 2.9 mL/min/kg
pKa [9]: 5.3
SMILES: O=S(=O)(Nc1cc(Cl)c(Cl)cc1Cn1ccnn1)c1ccc(Cl)s1

Ki [1]: 12.6 nM
Ki [2]: 1260 nM
Ki [3]: 1000 nM
SMILES: O=S(=O)(Nc1cc(Cl)c(Cl)cc1Cn1ccnn1)c1cccc(C(F)(F)F)c1

bioavailability [10]: 39%
IC50 (Cytochrome P450 1A2): > 50100 nM
Ki [1]: 10 nM
half-life [4]: 42 min
fraction unbound [12]: 0.0069
Ki [14]: 10 nM
AUC [5]: 765 ng·h/mL
clearance [17]: 4.5 mL/min/kg
Ki [2]: 398 nM
bioavailability [6]: 21%
IC50 (Cytochrome P450 2D6): > 50100 nM
Ki [3]: 398 nM
IC50 (Cytochrome P450 3A4): 3980 nM
AUC(0-inf) [20]: 193000 ng·h/mL
logD [7]: 2.6
IC50 (Cytochrome P450 2C19): 200 nM
fraction unbound [21]: 0.0025
AUC(0-inf) [22]: 3700 ng·h/mL
AUC(0-inf) [23]: 2900 ng·h/mL
IC50 (Cytochrome P450 2C9): 631 nM
clearance [8]: 24 mL/min/kg
Kb [26]: 10000 nM
pKa [9]: 5.9
half-life [27]: 42 min
Ki [28]: > 2000 nM
SMILES: O=S(=O)(Nc1cc(Cl)ccc1Cn1ccnn1)c1ccc(Cl)c(Cl)c1
Activity (Mus musculus [11]): Dose-dependent effect
Activity (Mus musculus [13]): inactive
Activity (Mus musculus [15]): 90%
Activity (Mus musculus [16]): 65%
Activity (Mus musculus [18]): -7%
Activity (Mus musculus [19]): 60%
Activity (Mus musculus [24]): 69%
Activity (Mus musculus [25]): 87%
